We go through 15 compounds from the NIST ThermoML archive (doi:10.1016/j.jct.2012.03.015).

Molecules are shown by their SMILES. Numbers after ± are expanded uncertainties.

The first data set is described as follows: activity coefficient (dimensionless); of the first substance listed, at infinite dilution; xn = mol fraction of the nth substance listed. The settings on record: 348.15 K; 101 kPa; Liquid; Chromatography; x1 = 0.
`CCCO` [propan-1-ol] + COCC[N+]1(C)CCCC1.O=S(=O)([N-]S(=O)(=O)C(F)(F)F)C(F)(F)F: the activity coefficient amounted to 1.71 ± 0.11.
Same read-out and setting: next, `COC(C)(C)C` [2-methoxy-2-methylpropane] + COCC[N+]1(C)CCCC1.O=S(=O)([N-]S(=O)(=O)C(F)(F)F)C(F)(F)F: 2.84 ± 0.19; `CC(C)=O` [acetone] + COCC[N+]1(C)CCCC1.O=S(=O)([N-]S(=O)(=O)C(F)(F)F)C(F)(F)F: 0.5 ± 0.04; `CCCC(C)=O` [pentan-2-one] + COCC[N+]1(C)CCCC1.O=S(=O)([N-]S(=O)(=O)C(F)(F)F)C(F)(F)F: 0.87 ± 0.06.
`Cc1cccc(C)c1` [1,3-dimethylbenzene] + COCC[N+]1(C)CCCC1.O=S(=O)([N-]S(=O)(=O)C(F)(F)F)C(F)(F)F: the activity coefficient was determined as 2.19 ± 0.15.
The same measure, in the same setting: next, `C1CCCCCCC1` [cyclooctane] + COCC[N+]1(C)CCCC1.O=S(=O)([N-]S(=O)(=O)C(F)(F)F)C(F)(F)F: 16.2 ± 1.1; `C1CCCCC1` [cyclohexane] + COCC[N+]1(C)CCCC1.O=S(=O)([N-]S(=O)(=O)C(F)(F)F)C(F)(F)F: 9.22 ± 0.63.
Still for that read-out and setting: next, `Cc1ccccc1` [toluene] + COCC[N+]1(C)CCCC1.O=S(=O)([N-]S(=O)(=O)C(F)(F)F)C(F)(F)F: 1.53 ± 0.1; `COC(C)=O` [methyl ethanoate] + COCC[N+]1(C)CCCC1.O=S(=O)([N-]S(=O)(=O)C(F)(F)F)C(F)(F)F: 0.76 ± 0.05; `CCCCCCCCC` [nonane] + COCC[N+]1(C)CCCC1.O=S(=O)([N-]S(=O)(=O)C(F)(F)F)C(F)(F)F: 44.3 ± 3.
The same measure, in the same setting: next, `CC(C)(C)O` [2-methylpropan-2-ol] + COCC[N+]1(C)CCCC1.O=S(=O)([N-]S(=O)(=O)C(F)(F)F)C(F)(F)F: 1.56 ± 0.1; `CO` [methanol] + COCC[N+]1(C)CCCC1.O=S(=O)([N-]S(=O)(=O)C(F)(F)F)C(F)(F)F: 1.1 ± 0.07; `CCC(C)(C)C` [2,2-dimethylbutane] + COCC[N+]1(C)CCCC1.O=S(=O)([N-]S(=O)(=O)C(F)(F)F)C(F)(F)F: 13.1 ± 0.9.
As for `CC(C)CC(C)(C)C` [2,2,4-trimethylpentane] + COCC[N+]1(C)CCCC1.O=S(=O)([N-]S(=O)(=O)C(F)(F)F)C(F)(F)F, the activity coefficient came out at 22.3 ± 1.5.
As to `CC(C)O` [propan-2-ol] + COCC[N+]1(C)CCCC1.O=S(=O)([N-]S(=O)(=O)C(F)(F)F)C(F)(F)F, the activity coefficient turned out to be 1.54 ± 0.1.

Staying with this data set, now noted: 358.15 K; 101 kPa; Liquid; Chromatography; x1 = 0.
On to `CCCO` [propan-1-ol] + COCC[N+]1(C)CCCC1.O=S(=O)([N-]S(=O)(=O)C(F)(F)F)C(F)(F)F, for which the activity coefficient came out at 1.58 ± 0.1.
On the same count and under the same terms, the result for `COC(C)(C)C` [2-methoxy-2-methylpropane] + COCC[N+]1(C)CCCC1.O=S(=O)([N-]S(=O)(=O)C(F)(F)F)C(F)(F)F reads 2.86 ± 0.19; that for `CC(C)=O` [acetone] + COCC[N+]1(C)CCCC1.O=S(=O)([N-]S(=O)(=O)C(F)(F)F)C(F)(F)F, 0.51 ± 0.04; that for `CCCC(C)=O` [pentan-2-one] + COCC[N+]1(C)CCCC1.O=S(=O)([N-]S(=O)(=O)C(F)(F)F)C(F)(F)F, 0.89 ± 0.06.
With `Cc1cccc(C)c1` [1,3-dimethylbenzene] + COCC[N+]1(C)CCCC1.O=S(=O)([N-]S(=O)(=O)C(F)(F)F)C(F)(F)F, the activity coefficient amounted to 2.2 ± 0.15.
Same read-out and setting: next, `C1CCCCCCC1` [cyclooctane] + COCC[N+]1(C)CCCC1.O=S(=O)([N-]S(=O)(=O)C(F)(F)F)C(F)(F)F: 15 ± 1; `C1CCCCC1` [cyclohexane] + COCC[N+]1(C)CCCC1.O=S(=O)([N-]S(=O)(=O)C(F)(F)F)C(F)(F)F: 8.65 ± 0.59; `Cc1ccccc1` [toluene] + COCC[N+]1(C)CCCC1.O=S(=O)([N-]S(=O)(=O)C(F)(F)F)C(F)(F)F: 1.55 ± 0.1.
Same read-out and setting: the result for `COC(C)=O` [methyl ethanoate] + COCC[N+]1(C)CCCC1.O=S(=O)([N-]S(=O)(=O)C(F)(F)F)C(F)(F)F reads 0.77 ± 0.05.
With `CCCCCCCCC` [nonane] + COCC[N+]1(C)CCCC1.O=S(=O)([N-]S(=O)(=O)C(F)(F)F)C(F)(F)F, the activity coefficient turned out to be 41 ± 2.8.
The same measure, in the same setting: the result for `CC(C)(C)O` [2-methylpropan-2-ol] + COCC[N+]1(C)CCCC1.O=S(=O)([N-]S(=O)(=O)C(F)(F)F)C(F)(F)F reads 1.48 ± 0.1.
Still for that read-out and setting: the result for `CO` [methanol] + COCC[N+]1(C)CCCC1.O=S(=O)([N-]S(=O)(=O)C(F)(F)F)C(F)(F)F reads 1.03 ± 0.06; that for `CCC(C)(C)C` [2,2-dimethylbutane] + COCC[N+]1(C)CCCC1.O=S(=O)([N-]S(=O)(=O)C(F)(F)F)C(F)(F)F, 12.6 ± 0.9; that for `CC(C)CC(C)(C)C` [2,2,4-trimethylpentane] + COCC[N+]1(C)CCCC1.O=S(=O)([N-]S(=O)(=O)C(F)(F)F)C(F)(F)F, 21.2 ± 1.4.
Same read-out and setting: the result for `CC(C)O` [propan-2-ol] + COCC[N+]1(C)CCCC1.O=S(=O)([N-]S(=O)(=O)C(F)(F)F)C(F)(F)F reads 1.43 ± 0.09.

Still in this data set, the particulars now being: 368.15 K; 101 kPa; Liquid; Chromatography; x1 = 0.
With `CCCO` [propan-1-ol] + COCC[N+]1(C)CCCC1.O=S(=O)([N-]S(=O)(=O)C(F)(F)F)C(F)(F)F, the activity coefficient was 1.48 ± 0.1.
On the same count and under the same terms, the result for `COC(C)(C)C` [2-methoxy-2-methylpropane] + COCC[N+]1(C)CCCC1.O=S(=O)([N-]S(=O)(=O)C(F)(F)F)C(F)(F)F reads 2.89 ± 0.2; that for `CC(C)=O` [acetone] + COCC[N+]1(C)CCCC1.O=S(=O)([N-]S(=O)(=O)C(F)(F)F)C(F)(F)F, 0.52 ± 0.04; that for `CCCC(C)=O` [pentan-2-one] + COCC[N+]1(C)CCCC1.O=S(=O)([N-]S(=O)(=O)C(F)(F)F)C(F)(F)F, 0.9 ± 0.06.
Still for that read-out and setting: next, `Cc1cccc(C)c1` [1,3-dimethylbenzene] + COCC[N+]1(C)CCCC1.O=S(=O)([N-]S(=O)(=O)C(F)(F)F)C(F)(F)F: 2.22 ± 0.15; `C1CCCCCCC1` [cyclooctane] + COCC[N+]1(C)CCCC1.O=S(=O)([N-]S(=O)(=O)C(F)(F)F)C(F)(F)F: 14 ± 1; `C1CCCCC1` [cyclohexane] + COCC[N+]1(C)CCCC1.O=S(=O)([N-]S(=O)(=O)C(F)(F)F)C(F)(F)F: 8.23 ± 0.56.
Same read-out and setting: the result for `Cc1ccccc1` [toluene] + COCC[N+]1(C)CCCC1.O=S(=O)([N-]S(=O)(=O)C(F)(F)F)C(F)(F)F reads 1.56 ± 0.1; that for `COC(C)=O` [methyl ethanoate] + COCC[N+]1(C)CCCC1.O=S(=O)([N-]S(=O)(=O)C(F)(F)F)C(F)(F)F, 0.78 ± 0.05.
As for `CCCCCCCCC` [nonane] + COCC[N+]1(C)CCCC1.O=S(=O)([N-]S(=O)(=O)C(F)(F)F)C(F)(F)F, the activity coefficient is 37.8 ± 2.6.
Still for that read-out and setting: the result for `CC(C)(C)O` [2-methylpropan-2-ol] + COCC[N+]1(C)CCCC1.O=S(=O)([N-]S(=O)(=O)C(F)(F)F)C(F)(F)F reads 1.4 ± 0.09.
With `CO` [methanol] + COCC[N+]1(C)CCCC1.O=S(=O)([N-]S(=O)(=O)C(F)(F)F)C(F)(F)F, the activity coefficient amounted to 0.972 ± 0.061.
`CCC(C)(C)C` [2,2-dimethylbutane] + COCC[N+]1(C)CCCC1.O=S(=O)([N-]S(=O)(=O)C(F)(F)F)C(F)(F)F: the activity coefficient came to 12 ± 0.8.
The same measure, in the same setting: next, `CC(C)CC(C)(C)C` [2,2,4-trimethylpentane] + COCC[N+]1(C)CCCC1.O=S(=O)([N-]S(=O)(=O)C(F)(F)F)C(F)(F)F: 20 ± 1.4.
On to `CC(C)O` [propan-2-ol] + COCC[N+]1(C)CCCC1.O=S(=O)([N-]S(=O)(=O)C(F)(F)F)C(F)(F)F, for which the activity coefficient was 1.34 ± 0.09.
